Marks after values point to notes of the source that are not given here.
Key:
Format in all cases: in vivo
[1] = test system: CL2006 C. elegans; assay: CL2006 lifespan at 20° C. (paralysis and death model); settings: CL2006 worms, 50 μg peptide
Protocol: CL2006 C. elegans were used as a paralysis and death model. Worms are maintained at 15° C., with adult onset paralysis induced at 20° C.
50 μg CPAMC and CPPRAMC peptide or controls were added to CL2006 worms, and the fraction left alive over time at the restrictive temperature of 20° C. was quantified (FIG. 12). […] (FIG. 12).

[2] = test system: CL4176 C. elegans; assay: CL4176 Aβ-induced paralysis and survival assay; settings: CL4176 worms
Protocol: CL4176 C. elegans is a temperature sensitive strain. Worms are maintained at 15° C. and shifted to increased temperature to cause Aβ-induced paralysis in adults. This has been used as a C. elegans model of Alzheimer's disease.
A scheme of a paralysis assay with CL4176 worms is shown (FIG. 13A). Peptide treatment began on CL4176 embryos and continued throughout the experiment. After 2 days at 15° C., the temperature was increased to the restrictive temperature of 25° C. Worms were scored for survival and paralysis.
Example images of paralyzed and non-paralyzed worms are shown (FIG. 13C).

[3] = test system: C. elegans (N2) worms; assay: Juglone (JG)-induced oxidative stress survival; settings: N2 worms at day 5, 50 μg peptide 24 h, 50 μM JG
Protocol: N2 worms at day 5 pretreated for 24 h with 50 μg CPAMC or CP-SC (control) and subjected to 50 μM JG. Survival was checked every hour under a microscope until the end of survival. The median survival value in CPAMC and CP-SC (control) peptides corresponds to 7.3 h and 5.9 h, respectively, compared to vehicle control (4.9 h) (FIG. 15).

[4] = test system: C. elegans wild-type (N2 strain); assay: Paraquat (PQ)-induced oxidative stress survival; settings: five-day old N2 worms, 50 μg peptide 24 hours, 50 mM PQ
Protocol: Five-day old N2 worms were pretreated with 50 μg peptide for 24 hours and subjected to 50 mM PQ. The survival of the worms was monitored every hour under a microscope until the end of survival. […] The median survival value (50% survival) in CPPRAMC, CPAMC, and CP-SC (control) peptides corresponds to 9.6 h, 8.9 h and 5.9 h, respectively, as compared to vehicle control (5.5 h) (FIG. 14).

[5] = test system: C. elegans (N2 strain); assay: Thermotolerance assay, continuous heat stress at 35° C.; settings: N2 worms
Protocol: The lifespan of wild type C. elegans with and without peptide at a restrictive temperature was measured.
A schematic representation of the thermotolerance assay used is shown (FIG. 11A). 24 hours of 50 μg peptide treatment at 20° C. of a synchronized population of wild type C. elegans was followed by a continuous heat stress at 35° C. Worms were scored every two hours for 24 hours for survival.

[6] = test system: wild-type C. elegans (N2); assay: C. elegans N2 lifespan assay at 20° C. with peptide feeding; settings: N2 worms; for Median Lifespan (Days ± SE): 50 μg peptide with E. coli OP50; for Increase in median survival (%): 50 μg peptide, vs control
Protocol: A schematic of an assay of C. elegans N2 lifespan at 20° C. is shown (FIG. 10A). This involved peptide treatment (50 μg) with E. coli OP50 as a food source. Plates were changed every second day with 50 μg fresh peptide and OP50. Scoring of survival was done every day to the last day of survival. 50 mM FUdR was added in experimental plates between D1 and D5 to prevent progeny production.

Substance	Median survival ± SE (days at 20° C.) [1]	% increase in survival ([1]; vs control)	% increase in median survival ([2]; 25° C., vs control)	Median survival Hours ± SE ([2]; 2 days at 15° C., then 25° C.)	median survival value [3]	median survival value (50% survival) [4]	% increase in survival ([5]; 35° C., 50 μg peptide, vs control)	Median survival ± SE (hours at 35° C.) ([5]; 24 hours 50 μg peptide at 20° C., then 35° C.)	Median Lifespan (Days ± SE) [6]	Increase in median survival (%) [6]
CH3-VPTLKdlplknvedkfhrsfvesvk-NH2 [CP-cp, reference compound]	7.0 ± 0.28 days	2.0%	0%	44.7 ± 0.4 h	5.9 h	5.9 h	0%	7.4 ± 0.4 h	13.23 ± 0.20 days	0%
CH3-DFVIFLDVKHFSPEDLTVK-NH2 (Me-DFVIFLDVKHFSPEDLTVK-NH2; SMILES CC[C@H](C)[C@H](NC(=O)[C@@H](NC(=O)[C@H](Cc1ccccc1)NC(=O)[C@H](CC(=O)O)NC)C(C)C)C(=O)N[C@@H](Cc1ccccc1)C(=O)N[C@@H](CC(C)C)C(=O)N[C@@H](CC(=O)O)C(=O)N[C@H](C(=O)N[C@@H](CCCCN)C(=O)N[C@@H](Cc1c[nH]cn1)C(=O)N[C@@H](Cc1ccccc1)C(=O)N[C@@H](CO)C(=O)N1CCC[C@H]1C(=O)N[C@@H](CCC(=O)O)C(=O)N[C@@H](CC(=O)O)C(=O)N[C@@H](CC(C)C)C(=O)N[C@H](C(=O)N[C@H](C(=O)N[C@@H](CCCCN)C(N)=O)C(C)C)[C@@H](C)O)C(C)C) [MC-αA, Parent peptide from αA crystallin]									16.10 ± 0.25 days	20* %

— US11911436B2, “Amphiphilic peptide chaperones and methods of use” (priority 2021, dated 2024)
